{"source": "patent US20200022936A1", "about": "“COMBINATIONS OF DICLOFENAC, H2 RECEPTOR ANTAGONISTS AND ALKALI METAL BICARBONATES FOR THE TREATMENT OF PAIN AND INFLAMMATION” (priority 2017, published 2020)", "test": "in vivo", "design": "species or system Wistar rats", "settings": "male, Wistar, rat, po", "source_text": "The primary objective of the test was to compare the pharmacokinetics of diclofenac potassium when used as a single active compound with diclofenac potassium in combination with famotidine and/or potassium bicarbonate. In this experimental study, the aim was to observe how the addition of potassium bicarbonate to diclofenac and famotidine would change the pharmacokinetic properties of diclofenac potassium when diclofenac potassium is given alone or in combination with famotidine and/or potassium bicarbonate.\nMale Wistar rats (240-260 g) were used in the study. The rats were maintained in an air-conditioned animals quarter at a temperature of 22±2° C. and a relative humidity of 50±10%. Food and water were allowed ad libitum. The animals were acclimatized to the facilities for five days, and then fasted with free access to water for 12 h prior to the experiment. All the animals were housed under similar conditions.\nBioavailability and pharmacokinetics of diclofenac were studied in all the normal state of rats following an oral administration of 1 mg/kg diclofenac potassium, 0.4 mg/kg famotidine and 0.72 mg/kg or 0.36 mg/kg potassium bicarbonate in different occasions. Each rat was further subjected to similar studies after administration of diclofenac potassium and/or diclofenac in combination with famotidine. A total of 30 rats were used in the study divided into 5 groups, each group was administered; diclofenac alone, or 4 different combinations of diclofenac as outlined below.\nSix male and/or female rats per group were lavaged with 1 mg/kg Diclofenac potassium and combinations at a dosing volume of 2 ml/kg. Blood (0.2 ml) was taken from the tail vein prior to administration of test substances (0 h) and after 0.083, 0.167, 0.25, 0.5, 1, 2, 4, 8 and 12 h.\nBlood samples were collected in tubes containing %5 Na2-EDTA and kept on ice until 50 ul dichloromethane was added and they were centrifuged at 7000×g for 5 min at 4° C. and supernatants were collected for LC/MSMS analysis."}
{"smiles": "O=C(O)Cc1ccccc1Nc1c(Cl)cccc1Cl", "note": "[Diclofenac-K, 2[(2,6-dichlorophenyl)amino]benzeneacetic acid]", "values": [{"measurement": "Cmax", "result": 1260, "unit": "ng/mL"}, {"measurement": "Tmax of diclofenac", "result": 15, "unit": "min"}, {"measurement": "AUC(0-t)", "setting": "1 mg/kg", "result": 7510, "unit": "ng·h/mL"}, {"measurement": "Cmax", "setting": "1 mg/kg", "result": "1262 ± 0.048", "unit": "ng/mL"}, {"measurement": "Tmax", "setting": "1 mg/kg", "result": 15, "unit": "min"}, {"measurement": "Blood Concentrations of Diclofenac Potassium", "setting": "1 mg/kg, 0.083 h", "result": "1.096 ± 0.054"}, {"measurement": "Blood Concentrations of Diclofenac Potassium", "setting": "1 mg/kg, 0.25 h", "result": "1.262 ± 0.048"}, {"measurement": "Blood Concentrations of Diclofenac Potassium", "setting": "1 mg/kg, 0.5 h", "result": "1.078 ± 0.137"}, {"measurement": "Blood Concentrations of Diclofenac Potassium", "setting": "1 mg/kg, 1 h", "result": "0.943 ± 0.015"}, {"measurement": "Blood Concentrations of Diclofenac Potassium", "setting": "1 mg/kg, 2 h", "result": "0.600 ± 0.159"}, {"measurement": "Blood Concentrations of Diclofenac Potassium", "setting": "1 mg/kg, 4 h", "result": "0.600 ± 0.015"}, {"measurement": "Blood Concentrations of Diclofenac Potassium", "setting": "1 mg/kg, 8 h", "result": "0.578 ± 0.033"}, {"measurement": "Blood Concentrations of Diclofenac Potassium", "setting": "1 mg/kg, 12 h", "result": "0.486 ± 0.092"}]}
